Measurements: article PMC2820545, “Mechanistic Characterization and Molecular Modeling of Hepatitis B Virus Polymerase Resistance to Entecavir” (PLoS ONE, 2010)
Where two headings read alike, the source gives them in different places.

Experiments:
[1] = tested on: LVDr + M250V HBV; test: HBV cell culture susceptibility (HBV-transfected HepG2 cells); assay type: cell-based; settings: Hepatitis B virus, averaged from 2 isolates, read-out: ETV EC50, Average ± SD (Range)
Procedure: (§1) HepG2 human hepatoma cells (American Type Culture Collection) were maintained as described. The laboratory clone of HBV was the genotype D ayw serotype clone kindly provided by Dr. Steven Goff in the plasmid pCMV-HBV [41]. Plasmids expressing HBV RT with resistance substitutions were prepared using QuikChange® site-directed mutagenesis (Stratagene, LaJolla, CA).
(§2) HepG2 cell culture susceptibility assays were performed in cells transfected with HBV expression plasmids and cultured in the presence of a titration of antiviral compounds, as described in detail elsewhere. The levels of replicated, released HBV virions was measured at day five through immunocapture of detergent released nucleocapsids with anti-HBV core Ab and quantification of encapsidated HBV DNA [5]. Data were plotted as percent inhibition and EC50 values calculated as the drug concentration where 50% inhibition of extracellular HBV occurred.

[2] = tested on: LVDr + S202G HBV; test: as above; assay type: cell-based; settings: Hepatitis B virus, averaged from 2 isolates, read-out: ETV EC50, Average ± SD (Range)
Procedure: as §1, §2

[3] = tested on: LVDr + T184G + S202I HBV; test: as above; assay type: cell-based; settings: Hepatitis B virus, single patient isolate, read-out: ETV EC50, Average ± SD (Range)
Procedure: as §1, §2

[4] = tested on: LVDr + T184L HBV; test: as above; assay type: cell-based; settings: Hepatitis B virus, averaged from 2 isolates, read-out: ETV EC50, Average ± SD (Range)
Procedure: as §1, §2

[5] = tested on: LVDr L180M + M204V HBV; test: as above; assay type: cell-based; settings: Hepatitis B virus
Procedure: as §1, §2

[6] = tested on: Wildtype HBV; test: as above; assay type: cell-based; settings: Hepatitis B virus
Procedure: as §1, §2

[7] = tested on: HBV clones with ETVr signature substitutions in a LVDr background; test: HBV cell culture susceptibility, ETVr clones as a group; assay type: cell-based, hepatitis B virus
Text: The levels of ETVr observed in cell culture and in vitro enzymatic assays of representative clones with ETVr substitutions are shown in Table 1. […] High levels of ETVr were observed when HBV clones contained ETVr signature substitutions in a LVDr background both in vitro (>400-fold) and in culture (>200-fold), respectively (Table 1). A full analysis of the different ETVr substitutions in culture has been reported for engineered and clinical ETVr HBV isolates.
as §2

[8] = tested on: LVDr HBV with M250V or M250L; test: HBV cell culture strand-specific EC50 determination; assay type: cell-based, hepatitis B virus; settings: strand-specific riboprobes
Text: (§3) ETV inhibits HBV polymerase synthesis of DNA in vitro during both RNA-directed first (minus) strand synthesis as well as DNA-directed second (plus) strand synthesis. To determine if ETVr was influenced by the template for DNA synthesis, cell culture EC50 determinations were made using strand-specific riboprobes to hybridize to the synthesized HBV DNA, in parallel with the typical double-stranded DNA probe. In this way an ETV EC50 for each strand of DNA synthesis during the HBV cell culture was determined. […] The minus strand EC50 was similar to the EC50 obtained using the double-stranded DNA probe. These observations are consistent with M250 changes in the primer-grip region of HBV RT influencing ETVr at least in part through the template for DNA synthesis. An independent observation supported this hypothesis; resistance was seen using nucleocapsids prepared in our typical manner (Materials & Methods), isolated from cells grown in PFA to inhibit minus strand synthesis, enhancing the in vitro minus-strand synthesis activity of the preparations. […]
(§4) Figure 5 Analysis of ETVr through strand-specific DNA synthesis in culture. […] The levels of HBV DNA synthesized in the presence of ETV was determined by HBV-specific probe hybridization to HBV nucleocapsid DNA from the cultures. […]

[9] = tested on: wildtype, LVDr substituted and LVDr + T184 or S202 substituted HBV; test: as above; assay type: cell-based, hepatitis B virus; settings: strand-specific riboprobes, minus vs plus strand synthesis
Text: as §3, §4

[10] = tested on: wildtype or ETVr HBV polymerase; test: Pyrophosphorolysis removal of incorporated ETV from HBV DNA; assay type: biochemical, hepatitis B virus; settings: wildtype or ETVr enzymes; data not shown
Text: The inability of ETV to be proofread by HIV RT has been reported by Tchesnokov et al..

[11] = tested on: LVDr L180M + M204V HBV; design: method as in PMID 17267485, PMID 18362040; settings: cited from earlier work

For `C=C1[C@H](CO)[C@@H](O)C[C@@H]1n1cnc2c(=O)[nH]c(N)nc21` [ETV, Entecavir], which EC50 [1] is on record?
The EC50 was 3080 nM.

What about the EC50 [2] of the same compound?
The EC50 was 1210 nM.

What about the EC50 [3] of the same compound?
The EC50 was > 4000 nM.

And the EC50 [4]?
Its EC50 is 738 ± 119 nM.

And the EC50 ([5]; Cell culture, LVDr L180M + M204V, single isolate, read-out: ETV EC50, Average ± SD (Range))?
The EC50 was 30.4 ± 21.6 nM.

And the EC50 ([5]; panel of 15 LVDr isolates, read-out: average ETV EC50)?
Its EC50 is 31.1 nM.

What about the EC50 ([6]; Cell culture, Wildtype HBV, single isolate, read-out: ETV EC50, Average ± SD (Range)) of the same compound?
The EC50 was 3 ± 1.5 nM.

And the EC50 ([6]; panel of 76 wildtype isolates, read-out: average ETV EC50)?
Its EC50 is 3.4 nM.

And the “level of ETVr in culture” value [7]?
Its value is > 200 fold.

And the “strand-specific ETV EC50, first (minus) strand versus second (plus) strand” value [8]?
Its value is “increased relative to that for the second (plus) strand”.

And the “strand-specific ETV EC50, both strands of HBV DNA compared” value [9]?
The value was “nearly equivalent levels of susceptibility”.

And the “removal of ETV incorporated into HBV DNA using pyrophosphorolysis” value [10]?
Its value is “unable to demonstrate removal”.

And the “cross-resistance to ETV in culture” value [11]?
The value was “approximately 8 fold”.
